In patent US7872101B1, “Modulators of the orphan G protein-coupled receptors GPR78 and GPR26” (Schering Corporation, priority 2006, dated 2011):
Read-outs that look alike come from different tables or passages of the source.

Legend:
GPR78 [1] = target: T1, GPR78 (Homo sapiens, UniProt Q96P69); test: cre-luciferase cAMP reporter assay in GPR78-transfected HEK293/cre-luc cells; assay type: cell-based; details: for cAMP stimulation: final concentration 300 μM in 1.5% DMSO, luciferase reporter assay and direct cAMP measurement (Perkin-Elmer kit); for cAMP level compared with GPR78-expressing cells stimulated with buffer (Basal): Tyrphostin B42 at 23 μM, Tyrphostin A9 at 24 μM; for effect on genistein-induced cAMP: FIG. 6A; for cAMP level compared to buffer control / genistein: isoflavones, FIG. 3
T1 construct: Full length open reading frames (ORFS) of GPR78 and GPR26 were obtained with PCR; expressed in transfected cells; host or cells: HEK293/cre-luc
T1 sequence (Q96P69 whole entry): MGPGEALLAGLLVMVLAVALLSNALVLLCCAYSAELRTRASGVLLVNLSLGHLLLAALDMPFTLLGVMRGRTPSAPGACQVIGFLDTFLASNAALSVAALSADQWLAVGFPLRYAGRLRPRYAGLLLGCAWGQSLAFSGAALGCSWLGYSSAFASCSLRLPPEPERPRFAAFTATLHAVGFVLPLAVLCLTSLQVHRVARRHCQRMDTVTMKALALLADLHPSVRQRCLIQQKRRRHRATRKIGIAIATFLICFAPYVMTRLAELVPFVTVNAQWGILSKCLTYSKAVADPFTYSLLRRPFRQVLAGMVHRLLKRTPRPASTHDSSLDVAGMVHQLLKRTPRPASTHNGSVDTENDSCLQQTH
Protocol: (§1) HEK293/cre-luc cells were harvested by 0.05% trypsin EDTA buffer, cells re-suspended in complete culture medium 20 million in […] transfection cuvette, 1 microgram receptor plasmid was transfected into reporter cells by electroporation method. The parameter of the GenePulser (Bio-Rad Laboratories, Hercules, Calif.) was set at: voltage 200 volts and capacity 500 microfarads. After electroporation, cells were re-suspended at a density of 25,000 cells in 25 μl complete medium, placed in 384-well plate. After 24 hours of transfection, the transfection medium was replaced with fresh complete medium. Empty plasmid vector was transfected as a negative control (mock transfection).
When inhibitors were used in the assay, they were added 30 minutes before cell stimulation. At the end of incubation, 25 μl of Bright-Glo™ obtained from Promega (Madison, Wis.) was added into each well. Luciferase activity was determined with a luminometer (Luminoskan Ascent®, Thermo-Electron Corp.), at a speed of 100 milliseconds per well.
Response of cells with the expressed receptor to test ligand stimulation was subject to two types of detection: intracellular cAMP accumulation and intracellular Ca2+ flux monitored with fluorescent intensity using a Fluorimetric Image Plate Reader (FLIPR).

adenylyl cyclase = details: cell-free enzyme assays, ref [28]; read-out: published IC50; cited from earlier work
GPR26 [2] = target: T2, GPR26 (Homo sapiens, UniProt Q8NDV2); test: antagonist cre-luc reporter assay, inhibition of GPR26 activation; assay type: cell-based
T2 construct: Full length open reading frames (ORFS) of GPR78 and GPR26 were obtained with PCR; expressed in transfected cells; host or cells: HEK293/cre-luc
T2 sequence (Q8NDV2 whole entry): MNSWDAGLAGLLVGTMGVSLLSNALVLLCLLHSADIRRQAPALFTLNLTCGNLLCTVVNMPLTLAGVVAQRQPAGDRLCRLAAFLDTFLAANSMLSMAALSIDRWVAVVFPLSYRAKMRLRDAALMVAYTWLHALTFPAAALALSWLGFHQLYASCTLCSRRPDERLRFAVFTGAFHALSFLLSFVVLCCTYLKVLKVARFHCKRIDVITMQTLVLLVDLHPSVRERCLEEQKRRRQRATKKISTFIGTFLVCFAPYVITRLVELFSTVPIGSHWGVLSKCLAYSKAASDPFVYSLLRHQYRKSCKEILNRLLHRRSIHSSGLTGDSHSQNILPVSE
Protocol: (§2) Screening was performed by using cells transiently expressing GPR26 or GPR78. HEK293/cre-luc cells were harvested by using 0.05% trypsin EDTA solution, and were suspended in complete culture medium at a density of 20 million in 0.4 ml transfection cuvettes. One 1 microgram plasmid construct containing GPR78 or GPR26 cDNA was transfected into reporter cells by electroporation using the GenePulser (Bio-Red Laboratories, Hercules, Calif.). The transfection conditions were: voltage at 200 volts and capacity at 500 microfarads. After electroporation, cells were suspended at a density of 25,000 cells in 25 μl complete medium and placed in a 384-well plate. After 24 hours of transfection, the transfection medium was replaced with fresh complete medium. Empty plasmid vector was transfected as a negative control (mock transfection). The compounds were arranged in 96-well format in eight racks of 80, with one compound per well (250 μl at 10 mM in DMSO). […] By the end of incubation, 25 ul of Bright-Glo™ (Promega, Madison, Wis.) was added into each well. Luciferase activity was determined with a Luminometer (Luminoskan Ascent, Thermo Labsystems), at a speed of 100 milliseconds per well.
(§3) To determine the inhibitory potency of the two molecules, dose-response curves were generated with the same assay method and IC50 values calculated from the curves.

GPR78 [3] = target: T1, GPR78; test: antagonist cre-luc reporter assay, inhibition of GPR78 activation; assay type: cell-based
Protocol: as §2, §3

GPR78 [4] = target: T1, GPR78; test: direct intracellular cAMP measurement (Meso Scale Discovery kit) in HEK293/cre-luc cells stably transfected with GPR78; assay type: cell-based; details: FIG. 2C, read-out: EC50, increase of cAMP level
Protocol: (§4) Constructs PCR3.1-GPR78 and PCR3.1-GPR26 were transfected into HEK293/cre-luc cells with use of Lipofectamine™ 2000 and cells were selected for G418 resistance. Cells resistant to G418 were further diluted and selected for individual colonies. Cell lines grown from the G418-resistant colonies were screened for positive response with genistein in the Cre-Luciferase cAMP assay.
(§5) Intracellular cAMP was measured directly with a cAMP kit purchased from Meso Scale Discovery (Gaithersburg, Md., Ma6000 cAMP 384-well Kit, Catalog number K210FDD-2). The assay was preformed by following the manufacturer's protocol. Briefly, stable HEK293/cre-luc cells expressing GPR78 or GPR26 were harvested, washed with PBS and resuspended at 300,000/10 μl of assay buffer (from the kit) containing 0.5 mM IBMX. Genistein at appropriate concentrations was diluted in the cAMP assay buffer and 5 μl was added into wells of the assay plate. The mixture was then incubated at room temperature for 30 minutes. Light intensity in assay wells was measured using a MSD SI6000 instrument obtained from Meso Scale Discovery.

GPR26 [5] = target: T2, GPR26; test: cre-luciferase cAMP reporter assay in GPR26-transfected HEK293/cre-luc cells; assay type: cell-based; details: cre-luc reporter assay, transient transfection, FIG. 8A; read-out: EC50, activation of GPR26
Protocol: as §1
Forty hours after transfection, cells were stimulated by adding 5 μl of ligand in 60 μM 4-(3-butoxy-4-methoxy-benzyl)-2-Imidazolidinone in 293 SFM II serum-free media obtained from Gibco (Gaithersburg, Md.), and incubated for 6 hours at 37° C. in a 5% CO2-95% air incubator. […] Luciferase activity was determined with a luminometer (Luminoskan Ascent®, Thermo-Electron Corp.), at a speed of 100 milliseconds per well.
(§6) GPR26, another orphan GPCR, shares 51% identity in the seven transmembrane regions with GPR78 ([19]). […] HEK293/cre-luc cells were transiently transfected with pCR3.1-GPR26 and monitored cAMP levels upon stimulation with genistein. […]

GPR26 [6] = target: T2, GPR26; test: direct intracellular cAMP measurement (Meso Scale Discovery kit) in HEK293/cre-luc cells stably transfected with GPR26; assay type: cell-based; details: cells stably expressing GPR26, FIG. 8B
Protocol: as §4, §5, §6

GPR78 [7] = target: T1, GPR78; test: Ca2+ flux assay (FLIPR) in GPR78-expressing HEK/cre-luc cells; assay type: cell-based; details: genistein at concentrations near 100 μM, FIG. 5
Description: Response of cells with the expressed receptor to test ligand stimulation was subject to two types of detection: intracellular cAMP accumulation and intracellular Ca2+ flux monitored with fluorescent intensity using a Fluorimetric Image Plate Reader (FLIPR). For cAMP measurement, a HEK293 cell line that had been stably transfected with luciferase reporter gene, was used as a host cell transiently transfected with the pCR3.1-GPR78 construct described in Example 1.
(§7) Ca2+ flux measurements were taken to test if GPR78, when activated with genistein, is coupled to the Gq-mediated pathway.

protein tyrosine kinase = details: literature values; for genistein depending on the substrates used; read-out: IC50, inhibition of protein tyrosine kinase; cited from earlier work
GPR30 = target: T3, GPR30 (Homo sapiens, UniProt Q99527); details: Gβγ-mediated pathway, ref [25]; cited from earlier work
T3 construct: host or cells: MCF-7, MDA-MB-231, SKBR3 (as cited)
T3 sequence (Q99527 whole entry): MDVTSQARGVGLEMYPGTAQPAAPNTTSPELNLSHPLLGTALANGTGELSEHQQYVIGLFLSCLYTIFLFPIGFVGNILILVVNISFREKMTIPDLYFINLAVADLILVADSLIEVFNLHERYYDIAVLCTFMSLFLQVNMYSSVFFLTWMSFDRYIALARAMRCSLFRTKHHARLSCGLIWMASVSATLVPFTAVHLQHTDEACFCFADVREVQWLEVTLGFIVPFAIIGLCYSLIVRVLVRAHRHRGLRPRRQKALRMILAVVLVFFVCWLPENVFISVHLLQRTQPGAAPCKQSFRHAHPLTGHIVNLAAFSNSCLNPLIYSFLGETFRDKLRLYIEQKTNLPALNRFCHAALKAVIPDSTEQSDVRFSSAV

protein kinase A = details: ref [27]; read-out: reported IC50 of H89; cited from earlier work
GPR154 = target: T4, GPR154 (Homo sapiens, UniProt Q6W5P4); test: Ca2+ flux assay (FLIPR), positive control receptor; assay type: cell-based; details: FIG. 5
T4 construct: expressed in transfected cells; host or cells: HEK293/cre-luc
T4 sequence (Q6W5P4 1-371): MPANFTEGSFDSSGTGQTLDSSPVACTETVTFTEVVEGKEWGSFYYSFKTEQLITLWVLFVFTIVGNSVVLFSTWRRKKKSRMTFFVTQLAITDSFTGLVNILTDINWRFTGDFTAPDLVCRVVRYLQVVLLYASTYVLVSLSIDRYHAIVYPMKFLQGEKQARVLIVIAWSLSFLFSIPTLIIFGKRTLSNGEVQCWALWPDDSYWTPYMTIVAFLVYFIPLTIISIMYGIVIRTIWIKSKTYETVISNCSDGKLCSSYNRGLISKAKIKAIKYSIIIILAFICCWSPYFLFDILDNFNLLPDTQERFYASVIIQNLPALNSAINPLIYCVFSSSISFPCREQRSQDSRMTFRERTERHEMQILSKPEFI
Description: as §7

NO synthase (NOS) = NO synthase (NOS) (Mus musculus, UniProt P29477); details: read-out: IC50, inhibition of NOS; cultured peritoneal macrophages, ref [40]; cited from earlier work
NO synthase (NOS), sequence (P29477 whole entry): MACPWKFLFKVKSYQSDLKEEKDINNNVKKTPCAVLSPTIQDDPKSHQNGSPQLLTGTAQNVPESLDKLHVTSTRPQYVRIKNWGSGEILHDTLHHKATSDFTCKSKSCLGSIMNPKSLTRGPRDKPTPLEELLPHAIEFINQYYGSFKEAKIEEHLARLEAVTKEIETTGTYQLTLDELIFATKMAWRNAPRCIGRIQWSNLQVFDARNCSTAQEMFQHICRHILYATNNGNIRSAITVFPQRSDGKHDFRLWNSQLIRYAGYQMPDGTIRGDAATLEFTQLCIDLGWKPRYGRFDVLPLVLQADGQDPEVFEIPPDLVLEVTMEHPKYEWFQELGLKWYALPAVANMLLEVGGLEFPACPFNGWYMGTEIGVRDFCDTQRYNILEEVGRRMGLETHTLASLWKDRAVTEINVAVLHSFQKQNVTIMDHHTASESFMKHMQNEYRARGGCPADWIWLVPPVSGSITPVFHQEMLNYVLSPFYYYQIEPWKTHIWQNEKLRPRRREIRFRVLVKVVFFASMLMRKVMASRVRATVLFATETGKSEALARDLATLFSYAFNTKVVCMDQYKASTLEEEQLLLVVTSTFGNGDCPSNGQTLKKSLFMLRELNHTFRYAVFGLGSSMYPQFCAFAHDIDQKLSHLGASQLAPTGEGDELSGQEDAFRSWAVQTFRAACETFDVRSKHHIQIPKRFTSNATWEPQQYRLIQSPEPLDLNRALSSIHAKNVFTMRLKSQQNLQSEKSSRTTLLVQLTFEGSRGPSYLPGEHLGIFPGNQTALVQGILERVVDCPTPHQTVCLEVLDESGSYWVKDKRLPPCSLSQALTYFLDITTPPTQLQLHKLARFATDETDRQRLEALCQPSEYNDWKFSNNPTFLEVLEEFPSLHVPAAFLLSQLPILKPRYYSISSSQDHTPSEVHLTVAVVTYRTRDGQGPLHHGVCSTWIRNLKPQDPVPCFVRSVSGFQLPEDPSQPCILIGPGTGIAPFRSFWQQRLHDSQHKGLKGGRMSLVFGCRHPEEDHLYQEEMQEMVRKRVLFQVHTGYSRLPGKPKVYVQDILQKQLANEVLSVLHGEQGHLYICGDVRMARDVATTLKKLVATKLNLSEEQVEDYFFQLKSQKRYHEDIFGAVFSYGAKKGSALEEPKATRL

rabbit aortic rings = details: read-out: IC50, block of acetylcholine-induced relaxation, ref [40]; cited from earlier work

In the case of C[C@]12CC[C@H]3[C@@H](CCC4=CC(=O)CC[C@@]43C)[C@@H]1CC[C@@H]2O [testosterone], the cAMP stimulation (GPR78 [1]) is reported as “No cAMP stimulation was observed”.
In the case of Nc1ncnc2c1ncn2C1CCCO1 (centres unmarked) [SQ22536, 9-(Tetrahydro-2-furanyl)-9H-purin-6-amine], the “reduction of genistein-stimulated cAMP” value (GPR78 [1]; SQ22536 at 20 μM pre-incubated, FIG. 7) is given as 25%, the “reduction of cAMP level resulting from constitutive activity of GPR78” value (GPR78 [1]; SQ22536 at 20 μM pre-incubated, absence of genistein, FIG. 7) is given as 34% and the IC50 (adenylyl cyclase) is given as 20 µM.
Work on C[n+]1cc2c3c(ccc2c2ccc4cc5c(cc4c21)OCO5)OCO3 [sanguinarine Cl hydrate] yielded an IC50 (GPR26 [2]; cre-luc reporter assay, dose-response curves, read-out: IC50, inhibition of GPR26 activation) of 0.26 µM and an IC50 (GPR78 [3]; cre-luc reporter assay, dose-response curves, read-out: IC50, inhibition of GPR78 activation) of 0.65 µM.
In the case of CC(=O)[C@H]1CC[C@H]2[C@@H]3CCC4=CC(=O)CC[C@]4(C)[C@H]3CC[C@]12C [progesterone], the cAMP stimulation (GPR78 [1]) is reported as “No cAMP stimulation was observed”.
For O=c1c(-c2ccc(O)cc2)coc2cc(O)cc(O)c12 [genistein], the EC50 (GPR78 [1]) was 6 to 10 µM, the “increase of luciferase activity (cAMP production) compared to the mock transfection control” value (GPR78 [1]; 25 μM genistein, transiently transfected cells, FIG. 1) was “more than 8 fold” and the EC50 (GPR78 [1]; FIG. 2A, read-out: EC50, induction of cAMP) was 7 µM. The EC50 (GPR78 [4]) was about 6 µM, the EC50 (GPR26 [5]) was about 10 µM and the cAMP production (GPR26 [6]) was “stimulated cAMP production”. The “activation in Ca++ flux assay” value (GPR78 [7]) was “not activated”, the IC50 (protein tyrosine kinase) was 1 to 22 µM and the “potency of GPR30 activation” value (GPR30) was “low μM range”.
For CC(C)(C)c1cc(C=C(C#N)C#N)cc(C(C)(C)C)c1O [Tyrphostin A9], the “cAMP level compared with GPR78-expressing cells stimulated with buffer (Basal)” value (GPR78 [1]; FIG. 1) is given as “not higher than the level in GPR78-expressing cells stimulated with buffer” and the IC50 (protein tyrosine kinase) is given as 0.04 to 9 µM.
In the case of N#C/C(=C\c1ccc(O)c(O)c1)C(=O)NCc1ccccc1 [Tyrphostin B42], the “cAMP level compared with GPR78-expressing cells stimulated with buffer (Basal)” value (GPR78 [1]; FIG. 1) is given as “not higher than the level in GPR78-expressing cells stimulated with buffer” and the IC50 (protein tyrosine kinase) is given as 20 µM.
For Cl.Cl.O=S(=O)(NCCNCC=Cc1ccc(Br)cc1)c1cccc2cnccc12 [H89, N-[2-(p-bromocinnamylamino)ethyl]-5-isoquinolinesulfonamide dihydrochloride], the “effect on genistein-induced cAMP” value (GPR78 [1]; 10 μM H89, 30 min pre-incubation) was “Most of genistein-induced cAMP was reduced”, the “effect on basal (constitutive) cAMP level” value (GPR78 [1]; 10 μM H89, compared to cells with no H89, FIG. 6A) was “decrease of the basal cAMP level by approximately half” and the “effect on genistein-induced cAMP” value (GPR78 [1]; 100 μM H89, 30 min pre-incubation) was “all cAMP accumulation was abolished”. The “effect on basal (constitutive) cAMP level” value (GPR78 [1]; 100 μM H89, FIG. 6A) was “completely inhibited cAMP accumulation” and the IC50 (protein kinase A) was 0.05 µM.
For COc1ccc(-c2coc3cc(O)cc(O)c3c2=O)cc1 [biochanin A], the “cAMP level compared to buffer control / genistein” value (GPR78 [1]) was “only slightly induced cAMP levels”.
In the case of “neuropeptide S (SFRNGVGTGMKKTSFQRAKS) [ligand of GPR154, positive control in Ca2+ flux assay]”, the “response in Ca2+ flux assay” value (GPR154) is reported as “responded to neuropeptide S acutely”.
In the case of O=c1c(-c2ccc(O)cc2)coc2cc(O)ccc12 [daidzein], the “cAMP level compared to buffer control / genistein” value (GPR78 [1]) is reported as “significantly increased cAMP level comparable to that by genistein”.
In the case of c1ccc2c(c1)[I+]c1ccccc1-2 [diphenyleneiodonium Cl, Diphenyleneiodonium Cl], the IC50 (GPR26 [2]) is listed as 39 µM, the IC50 (GPR78 [3]) is listed as 65 µM and the IC50 (NO synthase (NOS)) is listed as 0.03 µM. For the same compound, the IC50 (rabbit aortic rings) was 0.3 µM.
